Source: patent US8158638B2, “Pyrazolopyrimidine derivative” (Daiichi Sankyo Company, Limited, priority 2006, dated 2012)
Where two headings read alike, the source gives them in different places.

Columns and labels:
[1] = biological target: T1, recombinant yeast Hsp90 protein (rHsp90) (Saccharomyces cerevisiae, UniProt P02829); experiment: Hsp90 ATPase assay; type: biochemical; conditions: rHsp90 100 μg/mL, ATP 100 μM, 37° C., two hours, BIOMOL GREEN; read-out: IC50 value (concentration for 50% inhibition of ATP activity)
T1 construct: made in house; host or cells: Escherichia coli
T1 sequence (P02829 whole entry): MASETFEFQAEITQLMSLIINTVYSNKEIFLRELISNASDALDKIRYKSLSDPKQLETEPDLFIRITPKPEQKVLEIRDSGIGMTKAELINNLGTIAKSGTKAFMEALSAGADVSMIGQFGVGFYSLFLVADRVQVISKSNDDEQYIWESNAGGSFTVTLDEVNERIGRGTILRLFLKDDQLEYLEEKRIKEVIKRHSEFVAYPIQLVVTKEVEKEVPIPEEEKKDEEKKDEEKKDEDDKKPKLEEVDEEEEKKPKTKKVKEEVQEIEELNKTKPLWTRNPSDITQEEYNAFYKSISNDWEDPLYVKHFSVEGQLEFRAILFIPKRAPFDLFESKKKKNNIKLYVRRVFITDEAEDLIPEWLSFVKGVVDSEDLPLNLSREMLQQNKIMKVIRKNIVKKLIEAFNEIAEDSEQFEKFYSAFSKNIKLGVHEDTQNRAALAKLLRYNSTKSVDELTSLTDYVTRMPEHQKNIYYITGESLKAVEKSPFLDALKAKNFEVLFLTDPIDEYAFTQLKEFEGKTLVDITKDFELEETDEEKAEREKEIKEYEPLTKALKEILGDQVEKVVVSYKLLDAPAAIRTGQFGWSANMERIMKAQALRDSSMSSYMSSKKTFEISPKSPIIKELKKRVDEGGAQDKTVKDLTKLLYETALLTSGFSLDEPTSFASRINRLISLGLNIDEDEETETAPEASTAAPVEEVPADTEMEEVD
Description: An Hsp90 ATPase assay was performed using a recombinant yeast Hsp90 protein (hereinafter called rHsp90). Yeast Hsp90 DNA was cloned from a yeast genomic DNA library according to a conventional method. The cloned yeast Hsp90 DNA was incorporated into a plasmid for expression in Escherichia coli, and the plasmid was expressed in Escherichia coli to obtain rHsp90.
The test compound was dissolved in DMSO to 10 mM. The dissolved solution was diluted with DMSO to eight concentrations ranging in three-fold dilutions from 4 mM. Each diluted solution was further 10-fold diluted with an assay buffer (100 mM Tris, pH 7.4, 20 mM KCl, 6 mM MgCl2) (concentration of each test compound solution: 400 μM, 133 μM, 44.4 μM, 14.8 μM, 4.94 μM, 1.65 μM, 0.549 μM, 0.183 μM; DMSO concentration: 10%).
rHsp90 was dissolved in a TE buffer (20 mM Tris, pH 7.4, 1 mM EDTA) to a concentration of 2.531 mg/mL. The dissolved solution was diluted with assay buffer to 125 μg/mL and dispensed to a 96-well assay plate at 40 μL per well (final concentration: 100 μg/mL).
The test compound solution was dispensed at 5 μL per well, and then the solutions in the respective wells were mixed using a plate mixer. 100 mM ATP (Sigma, Catalog No. A-7699) was diluted with assay buffer to 1 mM and dispensed at 5 μL per well (final concentration: 100 μM). The solutions in the respective wells were mixed using a plate mixer, and then the assay plate was allowed to stand in an incubator set at 37° C. for two hours.
BIOMOL GREEN Reagent (BIOMOL, Catalog No. AK-111) was dispensed at 100 μL per well, and the reaction was terminated. The solutions in the respective wells were mixed by pipetting (three times), and then 34% sodium citrate was dispensed at 10 μL per well. The solutions in the respective wells were mixed by pipetting (three times), and then the assay plate was left to stand at room temperature for 10 minutes. The absorbance at 630 nm of each well was measured with a microplate reader.
The ratio of the absorbance of the test compound-added group to the absorbance of the test compound-free group (T/C value) was determined by the following calculation formula, based on the assumption that the absorbance of the well to which the test compound and rHsp90 were added was A, the absorbance of the well to which only rHsp90 was added was B, and the absorbance of the well to which neither the test compound nor rHsp90 was added was C. T/C=(A−C)/(B−C)
Further, the concentration for 50% inhibition of ATP activity (IC50 value) was calculated using GraphPad Prism 4 (GraphPad Software, Inc.).

[2] = system: human breast cancer cell line SK-BR-3; experiment: Cell growth inhibition assay (MTT), SK-BR-3; type: cell-based; conditions: Homo sapiens, read-out: GI50 value (50% growth inhibitory concentration)
Description: (§1) A cell growth inhibition assay was performed using two types of cells (human breast cancer cell line SK-BR-3 and human lung cancer cell line NCI-H460).
(§2) Cells of each type were suspended in a medium and seeded into a 96-well multi-well plate at 500 cells/150 μl/well. The test compound was dissolved in DMSO, and this was diluted with medium to prepare a sample solution (DMSO concentration: 0.5% or less). On the day following the seeding, 50 μL of DMSO-containing medium to which the test compound was not added (hereinafter called DMSO diluted solution; DMSO concentration: 0.5% or less) or the sample solution was added to the cells. An MTT assay was performed immediately after and 72 hours after adding the sample solution or the DMSO diluted solution to the cells. The MTT assay was performed as follows.
(§3) 5 mg/mL of an MTT (3-(4,5-dimethylthiazol-2-yl)-2,5-diphenyltetrazolium bromide) solution was added at 20 μL per well. Thereafter, the plate was incubated at 37° C. in 5% CO2 for four hours. The plate was centrifuged at 1200 rpm for five minutes, and then the culture supernatant was removed by suction using a dispenser. DMSO was added at 150 μL per well, and the generated formazan was dissolved. The plate was stirred using a plate mixer to uniformly color the respective wells. The absorbance of each well was measured using a plate reader at an OD of 540 nm with a reference of 660 nm.
(§4) T/C (%) for each concentration was determined by the following calculation formula and a dose-response curve was drawn to calculate the 50% growth inhibitory concentration (GI50 value), based on the assumption that the OD value measured immediately after adding the sample solution was S, the OD value measured 72 hours after adding the sample solution was T, and the OD value measured 72 hours after adding the DMSO diluted solution was C. T/C(%)=(T−S)/(C−S)×100

[3] = system: human lung cancer cell line NCI-H460; experiment: Cell growth inhibition assay (MTT), NCI-H460; type: cell-based; conditions: Homo sapiens, read-out: GI50 value (50% growth inhibitory concentration)
Description: as §1, §2, §3, §4

Structure (SMILES) | IC50 [1] [nM] | GI50 ([2]; SK-BR-3, MTT assay, 72 hours) [nM] | GI50 ([3]; NCI-H460, MTT assay, 72 hours) [nM] | GI50 ([2]; SK-BR-3, 72 h) [nM] | GI50 ([3]; NCI-H460, 72 h) [nM]
Cc1cnc(Cn2nc3c4c(nc(N)nc42)SCC3)c(C)c1Cl [Example 175, 2-[(4-Chloro-3,5-dimethylpyridin-2-yl)methyl]-7,8-dihydro-2H-6-thia-1,2,3,5-tetraazaacenaphthylen-4-amine] | 1200 | – | – | – | –
COc1c(C)cnc(Cn2nc3c4c(nc(N)nc42)SC(C(=O)Nc2ncc(C)s2)C3)c1C (centres unmarked) [Example 194, 4-Amino-2-[(4-methoxy-3,5-dimethylpyridin-2-yl)methyl]-N-(5-methyl-1,3-thiazol-2-yl)-7,8-dihydro-2H-6-thia-1,2,3,5-tetraazaacenaphthylene-7-carboxamide] | 1800 | 17 | 37 | – | –
Nc1nc2c3c(nn(Cc4cc5c(cn4)OCCO5)c3n1)CCS2 [Example 172, 2-(2,3-Dihydro[1,4]dioxino[2,3-c]pyridin-7-ylmethyl)-7,8-dihydro-2H-6-thia-1,2,3,5-tetraazaacenaphthylen-4-amine] | 1500 | – | – | – | –
COc1c(C)cnc(Cn2nc3c4c(nc(N)nc42)SCC(C(=O)N2CCC(F)(F)C2)=C3)c1C [Example 218, 8-[(3,3-Difluoropyrrolidin-1-yl)carbonyl]-2-[(4-methoxy-3,5-dimethylpyridin-2-yl)methyl]-2,7-dihydro-6-thia-1,2,3,5-tetraazabenzo[cd]azulen-4-amine] | 2300 | – | – | 75 | 160
COc1c(C)cnc(Cn2nc3c4c(nc(N)nc42)SCC(NC(C)=O)C3)c1C (centres unmarked) [Example 43, N-{4-Amino-2-[(4-methoxy-3,5-dimethylpyridin-2-yl)methyl]-2,7,8,9-tetrahydro-6-thia-1,2,3,5-tetraazabenzo[cd]azulen-8-yl}acetamide] | 1400 | 91 | 253 | – | –
Cn1c(=O)c(Cn2nc3c4c(nc(N)nc42)SCC3)cc2ccccc21 [Example 165, 3-[(4-Amino-7,8-dihydro-2H-6-thia-1,2,3,5-tetraazaacenaphthylen-2-yl)methyl]-1-methylquinolin-2(1H)-one] | 2000 | 6800 | 16000 | – | –
COc1c(C)cnc(Cn2nc3c4c(nc(N)nc42)SCC3)c1C [Example 2, 2-[(4-Methoxy-3,5-dimethylpyridin-2-yl)methyl]-7,8-dihydro-2H-6-thia-1,2,3,5-tetraazaacenaphthylen-4-amine] | 1000 | 148 | 224 | – | –
CCNC(=O)CC1=Cc2nn(Cc3ncc(C)c(OC)c3C)c3nc(N)nc(c23)SC1 [Example 118, 2-{4-Amino-2-[(4-methoxy-3,5-dimethylpyridin-2-yl)methyl]-2,7-dihydro-6-thia-1,2,3,5-tetraazabenzo[cd]azulen-8-yl}-N-ethylacetamide] | 610 | – | – | 33 | 510
COc1c(C)cnc(Cn2nc3c4c(nc(N)nc42)SC=C3)c1C [Example 151, 2-[(4-Methoxy-3,5-dimethylpyridin-2-yl)methyl]-2H-6-thia-1,2,3,5-tetraazaacenaphthylen-4-amine] | 890 | – | – | 48 | 110
Nc1nc2c3c(nn(Cc4nc5cccc(Cl)c5s4)c3n1)CCS2 [Example 174, 2-[(7-Chloro-1,3-benzothiazol-2-yl)methyl]-7,8-dihydro-2H-6-thia-1,2,3,5-tetraazaacenaphthylen-4-amine] | 3400 | – | – | – | –
CCc1c(C)cnc(Cn2nc3c4c(nc(N)nc42)SCC3)c1C [Example 176, 2-[(4-Ethyl-3,5-dimethylpyridin-2-yl)methyl]-7,8-dihydro-2H-6-thia-1,2,3,5-tetraazaacenaphthylen-4-amine] | 890 | – | – | – | –
COc1c(C)cnc(Cn2nc3c4c(nc(N)nc42)SCC(CO)=C3)c1C [Example 214, {4-Amino-2-[(4-methoxy-3,5-dimethylpyridin-2-yl)methyl]-2,7-dihydro-6-thia-1,2,3,5-tetraazabenzo[cd]azulen-8-yl}methanol] | 760 | – | – | – | –
